Counter-ions that a name gives are not always drawn.
Test system: MTT (mouse pheochromocytoma)
Test: IC50 of cell viability (ATP content)
Conditions: (24 or 48 h)
Procedure, shortened: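 MTT mouse pheochromocytoma cells were seeded into white 1536-well plates at 5 µl per well from a 200,000 cells/ml suspension in DMEM with 5% FBS and 1% horse serum, then cultured overnight at 37°C, 5% CO2. A pintool added 23 nl of library compound in DMSO at 8 concentrations (final 0.5 nM to 46 µM) for 24 or 48 hrs, and CellTiter-Glo ATP luminescence was read after 15 minutes. Signals were scaled so that positive-control wells equalled 100% and DMSO wells 0%. IC50 values were derived by fitting a four-parameter logistic curve.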

Row | IC50 of cell viability [µM] | SMILES
1 | > 46 | O=C(CCN1CCN(CCO)CC1)N1c2ccccc2Sc2ccc(C(F)(F)F)cc21 [Ftorpropazine]
2 | > 46 | C[C@]12CC[C@@H]3c4ccc(O)cc4C[C@@H](CCCCCCCCC[S+]([O-])CCCC(F)(F)C(F)(F)F)C3[C@@H]1CC[C@@H]2O (some centres not stated) [Fulvestrant]
3 | > 46 | O=C1O[C@H](CN2CCOCC2)CN1/N=C\c1ccc([N+](=O)[O-])o1 [Furaltadone hydrochloride]
4 | > 46 | O=C1OCCN1/N=C/c1ccc([N+](=O)[O-])o1 [Furazolidone]
5 | > 46 | N[S+](=O)([O-])c1cc(C(=O)O)c(NCc2ccco2)cc1Cl [Furosemide]
6 | > 46 | C/C(=C(\CCO)SSCC1CCCO1)N(C=O)Cc1cnc(C)nc1N (configuration not stated) [Fursultiamine]
7 | > 46 | CC(=O)O[C@@H]1C[C@]2(C)[C@H](C[C@@H](O)[C@H]3[C@@]4(C)CC[C@@H](O)[C@@H](C)[C@@H]4CC[C@@]32C)/C1=C(\CCC=C(C)C)C(=O)[O-].[Na+] [Fusidic acid sodium salt]
8 | > 46 | NCCCC(=O)O [GABA]
9 | > 46 | COC1=CC=C2CN(C)CC[C@@]34\C=C/[C@H](O)C[C@@H]3OC1=C24 [GALANTHAMINE]
10 | > 46 | CC[N+](CC)(CC)CCOc1cccc(OCC[N+](CC)(CC)CC)c1OCC[N+](CC)(CC)CC [GALLAMINE]
11 | > 46 | COc1cc(/C=C/C(=O)O[C@H]2CC[C@]34C[C@]35CC[C@]3(C)[C@@H]([C@H](C)CCC=C(C)C)CC[C@@]3(C)C5CCC4C2(C)C)ccc1O (some centres not stated) [GAMMA ORYZANOL]
12 | > 46 | COC1=C(N2CCNC(C)C2)C(=CC3=C1N(\C=C(C(O)=O)/C3=O)C4CC4)F (configuration not stated) [GATIFLOXACIN]
13 | > 46 | NC/1=N/C(=O)N(/C=C1)[C@@H]2O[C@H](CO)[C@@H](O)C2(F)F [GEMCITABINE HYDROCHLORIDE]
14 | > 46 | CC(C)=CCC/C(C)=C/CO [GERANIOL]
15 | > 46 | Oc1cc(O)c(Cl)cn1 [GIMERACIL]
16 | > 46 | C\C1=C\C(=O)OC2=CC(=CC=C12)OCC#C [GIPARMENUM]
17 | > 46 | Cc1cnc(C(=O)NCCc2ccc([S+](=O)([O-])NC(=O)NC3CCCCC3)cc2)cn1 [GLIPIZIDE]
18 | > 46 | O=C(O)[C@@H](O)[C@@H](O)[C@H](O)[C@H](O)CO [GLUCONIC ACID, BARIUM SALT]
19 | > 46 | O=C1OC(CO)C(O)C(O)C1O (configuration not stated) [GLUCONOLACTONE]
20 | > 46 | Cl.N[C@@H]1C(O)OC(CO)C(O)C1O (some centres not stated) [GLUCOSAMINE HYDROCHLORIDE]
21 | > 46 | NC(=O)[C@H]1O[C@@H](O)[C@H](O)[C@@H](O)[C@@H]1O [GLUCURONAMIDE]
22 | > 46 | NC(CCC(=O)N[C@@H](CS)C(=O)NCC(=O)O)C(=O)O (some centres not stated) [GLUTATHIONE]
23 | > 46 | COc1ccc(Cl)cc1C(=O)NCCc1ccc([S+](=O)([O-])NC(=O)NC2CCCCC2)cc1 [GLYBURIDE]
24 | > 46 | CC(C)(C)c1nnc(N[S+](=O)([O-])c2ccccc2)s1 [GLYBUZOLE]
25 | > 46 | OCC(O)CO [GLYCERIN]
26 | > 46 | CCCCCCCCCCCC(=O)OCC(O)CO (configuration not stated) [GLYCEROL MONOLAURATE]
27 | > 46 | CCCCCCCCCCCCCCCCCC(=O)OCC(O)CO (configuration not stated) [GLYCERYL MONOSTEARATE]

The remaining lines, values behind:

Row | SMILES | IC50 of cell viability [µM]
28 | CC1(C)O[C@@H]2C[C@@H]3[C@@H]4C[C@@H](F)\C5=C\C(=O)\C=C/[C@]5(C)[C@H]4[C@H](O)C[C@@]3(C)[C@]2(O1)C(=O)CO [Flunisolide] | > 46
29 | CNC[C@H](O)[C@H](O)[C@H](O)[C@H](O)CO.Cc1c(Nc2ncccc2C(=O)O)cccc1C(F)(F)F [Flunixin meglumine] | > 46
30 | CC1(C)O[C@@H]2C[C@H]3[C@@H]4C[C@H](F)C/5=C/C(=O)/C=C\[C@]5(C)[C@@]4(F)[C@@H](O)C[C@]3(C)[C@@]2(O1)C(=O)CO [Fluocinolone acetonide] | > 46
31 | O=C1OC2(c3ccc(O)cc3Oc3cc(O)ccc32)c2ccccc21 [Fluorescein (free acid)] | > 46
32 | O=C(O)c1ccccc1-c1c2ccc(=O)cc-2oc2cc(O)ccc12 [Fluorescein sodium] | > 46
33 | C[C@@H]\1C[C@@H]2[C@H]3CC[C@](O)(C(C)=O)[C@]3(C)C[C@H](O)[C@]2(F)[C@@]4(C)\C=C/C(=O)/C=C14 [Fluorometholone] | > 46
34 | CC1(O)CCC2C3CCC4=CC(=O)CCC4(C)C3(F)C(O)CC21C (configuration not stated) [Fluoxymesterone] | > 46
35 | CN1CCN(C2=Nc3cc(F)ccc3Cc3ccccc32)CC1 [Fluperlapine] | > 46
36 | CCOC(=O)Nc1ccc(NCc2ccc(F)cc2)nc1N [Flupirtine maleate salt] | > 46
37 | CCOC(=O)Nc1ccc(NCc2ccc(F)cc2)nc1N.O=C(O)/C=C\C(=O)O [Flupirtine maleate] | > 46
38 | C=C1C[C@@H]2[C@H]3CCC4=CC(=O)C=C[C@]4(C)[C@@]3(F)[C@@H](O)C[C@]2(C)[C@]1(O)C(=O)COC(C)=O [Fluprednidene acetate] | > 46
39 | C[C@]12C=CC(=O)C=C1[C@@H](F)C[C@@H]1[C@@H]2[C@@H](O)C[C@@]2(C)[C@H]1CC[C@]2(O)C(=O)CO [Fluprednisolone] | > 46
40 | O=C(O)CCC/C=C\C[C@@H]1[C@@H](/C=C/[C@@H](O)COc2cccc(C(F)(F)F)c2)[C@H](O)C[C@@H]1O [Fluprostenol sodium] | > 46
41 | CC1(C)O[C@@H]2C[C@@H]3[C@@H]4C[C@@H](F)\C5=C\C(=O)CC[C@]5(C)[C@H]4[C@H](O)C[C@@]3(C)[C@]2(O1)C(=O)CO [Flurandrenolide] | > 46
42 | CC(=O)O[C@H](C)OC(=O)[C@@H](C)c1ccc(-c2ccccc2)c(F)c1 [Flurbiprofen Axetil] | > 46
43 | C[C@@H](C(=O)O)c1ccc(-c2ccccc2)c(F)c1 [Flurbiprofen] | > 46
44 | NP(N)(=O)NC(=O)c1ccc(F)cc1 [Flurofamide] | > 46
45 | CC(=O)O[C@]1(C(C)=O)CCC2C3CCC4=CC(=O)CCC4(C)C3(F)C(O)CC21C (some centres not stated) [Flurogestone acetate] | > 46
46 | CC(C)C(=O)Nc1ccc([N+](=O)[O-])c(C(F)(F)F)c1 [Flutamide] | > 46
47 | CCC(=O)O[C@]1([C@@H](C)C[C@H]2[C@H]3C[C@@H](F)\C4=C\C(=O)\C=C/[C@@]4(C)[C@@]3(F)[C@@H](O)C[C@]12C)C(=O)SCF [Fluticasone propionate] | > 46

Row | SMILES | IC50 of cell viability [µM]
48 | CC(C)Oc1cccc(NC(=O)c2ccccc2C(F)(F)F)c1 [Flutolanil] | > 46
49 | C[N+]1(CCF)[C@@H]2CC[C@@H]1CC(OC(=O)C(O)(c1ccccc1)c1ccccc1)C2 (some centres not stated) [Flutropium] | > 46
50 | CC(C)n1c(/C=C/[C@H](O)C[C@H](O)CC(=O)[O-])c(-c2ccc(F)cc2)c2ccccc21 [Fluvastatina] | > 46
51 | Nc1nc(O)c2nc(CNc3ccc(C(=O)N[C@@H](CCC(=O)O)C(=O)O)cc3)cnc2n1 [Folic acid] | > 46
52 | CN(CC(=O)[NH+]1CCOCC1)Cc1c(Cl)cccc1NC(=O)c1ccccc1 [Fominoben hydrochloride] | > 46
53 | CC(Cc1ccccc1)NC=O (configuration not stated) [Formetorex] | > 46
54 | COc1ccc(C[C@H](C)NC[C@@H](O)c2ccc(O)c(NC=O)c2)cc1 [Formoterol hemifumarate] | > 46
55 | NNC(=O)CP(=O)(c1ccccc1)c1ccccc1 [Fosenazida] | > 46
56 | O=P(O)(O)OC(Cn1cncn1)(Cn1cncn1)c1ccc(F)cc1F [Fosfluconazole] | > 46
57 | C1CN(P2(N3CC3)=NP(N3CC3)(N3CC3)=NP(N3CC3)(N3CC3)=N2)CCO1 (configuration not stated) [Fotretamine] | > 46
58 | COc1ccc2nc(NC(=O)Nc3ccccc3)sc2c1 [Frentizole] | > 46
59 | CN[C@@H]1CCc2[nH]c3ccc(C(N)=O)cc3c2C1.O.O=C(O)CCC(=O)O [Frovatriptan Succinate Monohydrate] | > 46
60 | Cc1cccc(C)c1NC(=O)c1ccccc1C(=O)O [Ftaxilida] | > 46
61 | CN1CCN(CCC(=O)N2c3ccccc3Sc3ccc(C(F)(F)F)cc32)CC1 [Ftormetazine] | > 46
62 | CCCCCC(O)C1C(=O)OC(C)C(O)C=CC=CC=CC=CC=C(C)C(O)C(O)C(O)CC(O)CC(O)CC(O)CC(O)CC1O (configuration not stated) [Fungichromin] | > 46
63 | O=Cc1ccco1 [Furfural] | > 46
64 | CCCCc1ccc(C(=O)O)nc1 [Fusaric acid] | > 46
65 | CC(=O)[C@H]1CC[C@H]2[C@@H]3CC[C@H]4C[C@](C)(O)CC[C@]4(C)[C@H]3CC[C@]12C [GANAXOLONUM] | > 46
66 | CO/N=C1\CN(c2nc3c(cc2F)c(=O)c(C(=O)O)cn3C2CC2)CC1CN.C[S+](=O)([O-])O (configuration not stated) [GEMIFLOXACIN MESYLATE] | > 46
67 | C#C[C@]1(O)CC[C@H]2[C@@H]3CCC4=CC(=O)CCC4=C3C=C[C@@]21CC [GESTRINONE] | > 46
